We go through 7 compounds from US12577417B2, “Active energy ray-curable aqueous ink, recording method and recording apparatus” (CANON KABUSHIKI KAISHA, priority 2021, dated 2026).

The series in a line: Water solubility of bifunctional polymerizable monomer. It is filed as physicochemical. As to conditions: mixed with ion exchanged water at 25° C.; concentration at which no insoluble matter is found by visual observation. As for the experimental part:
When a bifunctional polymerizable monomer is mixed with ion exchanged water at 25° C. and the concentration at which no insoluble matter is found as a result of visual observation of the resulting mixture is shown as water solubility. Higher water solubility is preferred and the evaluation criteria is as follows.
A: no insoluble matter is found at 20% by mass
B: no insoluble matter is found at 5% by mass
C: no insoluble matter is found at 1% by mass
D: an insoluble matter is found at 1% by mass
As for `C=CC(=O)NCCCOCCOCCOCCCN(O)C(=O)C=C` [Comparative compound 1, reference compound], the Water solubility entry is reported as “A (no insoluble matter is found at 20% by mass)”. `C=CC(=O)NCCCCCC(=O)NCCNC(=O)CCCCCNC(=O)C=C` [Curable substance 12]: the Water solubility entry is reported as “C (no insoluble matter is found at 1% by mass)”. Under `C=CC(=O)NCCC(=O)NCCOCCOCCNC(=O)CCNC(=O)C=C` [Curable substance 1] stands “A (no insoluble matter is found at 20% by mass)”; under `C=CC(=O)NCCCC(=O)NCCCNC(=O)CCCNC(=O)C=C` [Curable substance 4], “B (no insoluble matter is found at 5% by mass)”. With `C=CC(=O)NCCCCCC(=O)NCCOCCOCCNC(=O)CCCCCNC(=O)C=C` [Curable substance 2], the Water solubility result was “C (no insoluble matter is found at 1% by mass)”.

`C=CC(=O)NCCOCCOCCNC(=O)C=C` [Comparative compound 2, reference compound]: the Water solubility entry is given as “A (no insoluble matter is found at 20% by mass)”.

On to `C=CC(=O)NCCC(=O)NCCCNC(=O)CCNC(=O)C=C` [Curable substance 3], for which the Water solubility entry was “B (no insoluble matter is found at 5% by mass)”.
